Experimental data taken from PMC6409085, “Three odorant-binding proteins are involved in the behavioral response of Sogatella furcifera to rice plant volatiles” (PeerJ, 2019).
Values joined by “and” are separate entries in the source; they are usually repeats but may differ in a detail not shown here. Equal values may be shown once.

Assays:
SfurOBP11 = SfurOBP11 (Sogatella furcifera, UniProt V5T6E3); assay: biochemical; type: binding
Method in brief: (§1)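 First, 2.0 µM protein in 50 mM Tris-HCl (pH 7.4) was titrated with 1-NPN to obtain K1-NPN. Then odorants (2–20 µM final) competed against 2.0 µM 1-NPN, with fluorescence (ex 337 nm) recorded after 2 min. Ki was computed from IC50 via Ki = IC50/(1 + [1-NPN]/K1-NPN).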

SfurOBP3 = SfurOBP3 (Sogatella furcifera, UniProt V5T818); assay: biochemical; type: binding; settings: for Fluorescence competitive binding assay, fluorescence intensity: OBP3, three replicate columns
SfurOBP3, sequence (V5T818 entry or part of it): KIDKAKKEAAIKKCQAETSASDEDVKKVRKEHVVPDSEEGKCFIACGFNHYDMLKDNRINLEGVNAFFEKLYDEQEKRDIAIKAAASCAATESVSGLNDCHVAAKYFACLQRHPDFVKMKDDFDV
Method in brief: as §1

SfurOBP1 = SfurOBP1 (Sogatella furcifera, UniProt V5T8N5); assay: biochemical; type: binding; settings: for Fluorescence competitive binding assay, fluorescence intensity: OBP1, three replicate columns
SfurOBP1, sequence (V5T8N5 entry or part of it): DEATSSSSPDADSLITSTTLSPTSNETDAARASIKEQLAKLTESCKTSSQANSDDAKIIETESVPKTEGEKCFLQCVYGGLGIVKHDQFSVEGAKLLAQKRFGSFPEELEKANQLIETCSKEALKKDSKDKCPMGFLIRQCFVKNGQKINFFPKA
Method in brief: as §1

SfurOBP2 = SfurOBP2 (Sogatella furcifera, UniProt V5T759); assay: biochemical; type: binding
SfurOBP2, sequence (V5T759 entry or part of it): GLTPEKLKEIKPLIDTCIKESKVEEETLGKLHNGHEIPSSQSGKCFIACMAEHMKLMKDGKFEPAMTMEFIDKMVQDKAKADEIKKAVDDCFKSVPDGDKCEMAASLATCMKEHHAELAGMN
Method in brief: as §1

S. furcifera adults = assay: Y-tube olfactometer behavioral trials; type: in vivo, Sogatella furcifera; settings: odorant 50 µL/L vs hexane; adults
Method in brief: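 Single S. furcifera adults (2 days post-emergence, starved 0.5 h) chose between odorant (100 µL of 50 µL/L on filter paper) and hexane control in a glass Y-tube, charcoal-filtered humidified air 300 mL/min per arm, 25 ± 1 °C, 50% RH. Choice scored if insect passed half an arm and stayed >1 min within 10 min; 45 insects per compound, chi-squared test.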

SfurOBP11, sequence (V5T6E3 entry or part of it): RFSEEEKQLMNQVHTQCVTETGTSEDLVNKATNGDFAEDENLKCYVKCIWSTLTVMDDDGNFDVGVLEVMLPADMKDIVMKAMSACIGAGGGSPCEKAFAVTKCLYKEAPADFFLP

Question: How did the IC50 (SfurOBP11) turn out when `OC1CCCCC1` [cyclohexanol] was run?
Answer: > 20 µM

Question: And the “Fluorescence intensity, fluorescence competitive binding assay, OBP11” value (shortened to “Fluorescence intensity … OBP11”) (SfurOBP11; ligand concentration 2, replicate 1)?
Answer: 24375

Question: And the “Fluorescence intensity … OBP11” value (SfurOBP11; ligand concentration 2, replicate 2)?
Answer: 24650

Question: What about the “Fluorescence intensity … OBP11” value (SfurOBP11; ligand concentration 2, replicate 3) of the same compound?
Answer: 24939

Question: What about the “Fluorescence intensity … OBP11” value (SfurOBP11; ligand concentration 4, replicate 1) of the same compound?
Answer: 24494

Question: And the “Fluorescence intensity … OBP11” value (SfurOBP11; ligand concentration 4, replicate 2)?
Answer: 24823

Question: And the “Fluorescence intensity … OBP11” value (SfurOBP11; ligand concentration 4, replicate 3)?
Answer: 24654

Question: And the “Fluorescence intensity … OBP11” value (SfurOBP11; ligand concentration 6, replicate 1)?
Answer: 24316

Question: And the “Fluorescence intensity … OBP11” value (SfurOBP11; ligand concentration 6, replicate 2)?
Answer: 24699

Question: And the “Fluorescence intensity … OBP11” value (SfurOBP11; ligand concentration 6, replicate 3)?
Answer: 24500

Question: And the “Fluorescence intensity … OBP11” value (SfurOBP11; ligand concentration 8, replicate 1)?
Answer: 24760

Question: What about the “Fluorescence intensity … OBP11” value (SfurOBP11; ligand concentration 8, replicate 2) of the same compound?
Answer: 24220

Question: And the “Fluorescence intensity … OBP11” value (SfurOBP11; ligand concentration 8, replicate 3)?
Answer: 24499

Question: What about the “Fluorescence intensity … OBP11” value (SfurOBP11; ligand concentration 10, replicate 1) of the same compound?
Answer: 22885

Question: And the “Fluorescence intensity … OBP11” value (SfurOBP11; ligand concentration 10, replicate 2)?
Answer: 23988

Question: And the “Fluorescence intensity … OBP11” value (SfurOBP11; ligand concentration 10, replicate 3)?
Answer: 24498

Question: What about the “Fluorescence intensity … OBP11” value (SfurOBP11; ligand concentration 12, replicate 1) of the same compound?
Answer: 23691

Question: What about the “Fluorescence intensity … OBP11” value (SfurOBP11; ligand concentration 12, replicate 2) of the same compound?
Answer: 23225

Question: What about the “Fluorescence intensity … OBP11” value (SfurOBP11; ligand concentration 12, replicate 3) of the same compound?
Answer: 24428

Question: What about the “Fluorescence intensity … OBP11” value (SfurOBP11; ligand concentration 14, replicate 1) of the same compound?
Answer: 22556

Question: And the “Fluorescence intensity … OBP11” value (SfurOBP11; ligand concentration 14, replicate 2)?
Answer: 23123

Question: And the “Fluorescence intensity … OBP11” value (SfurOBP11; ligand concentration 14, replicate 3)?
Answer: 22199

Question: And the “Fluorescence intensity … OBP11” value (SfurOBP11; ligand concentration 16, replicate 1)?
Answer: 21391

Question: And the “Fluorescence intensity … OBP11” value (SfurOBP11; ligand concentration 16, replicate 2)?
Answer: 22093

Question: What about the “Fluorescence intensity … OBP11” value (SfurOBP11; ligand concentration 16, replicate 3) of the same compound?
Answer: 21606

Question: And the “Fluorescence intensity … OBP11” value (SfurOBP11; ligand concentration 18, replicate 1)?
Answer: 23329

Question: And the “Fluorescence intensity … OBP11” value (SfurOBP11; ligand concentration 18, replicate 2)?
Answer: 23356

Question: What about the “Fluorescence intensity … OBP11” value (SfurOBP11; ligand concentration 18, replicate 3) of the same compound?
Answer: 23748

Question: And the “Fluorescence intensity … OBP11” value (SfurOBP11; ligand concentration 20, replicate 1)?
Answer: 23863

Question: What about the “Fluorescence intensity … OBP11” value (SfurOBP11; ligand concentration 20, replicate 2) of the same compound?
Answer: 23927

Question: What about the “Fluorescence intensity … OBP11” value (SfurOBP11; ligand concentration 20, replicate 3) of the same compound?
Answer: 23769

Question: And the IC50 (SfurOBP3)?
Answer: > 20 µM

Question: And the “Fluorescence competitive binding assay, fluorescence intensity” value (SfurOBP3; ligand concentration 2)?
Answer: 73467 and 78493 and 77746

Question: And the “Fluorescence competitive binding assay, fluorescence intensity” value (SfurOBP3; ligand concentration 4)?
Answer: 78452 and 70026 and 82856

Question: And the “Fluorescence competitive binding assay, fluorescence intensity” value (SfurOBP3; ligand concentration 6)?
Answer: 79407 and 77940 and 78195

Question: And the “Fluorescence competitive binding assay, fluorescence intensity” value (SfurOBP3; ligand concentration 8)?
Answer: 71546 and 83168 and 84706

Question: What about the “Fluorescence competitive binding assay, fluorescence intensity” value (SfurOBP3; ligand concentration 10) of the same compound?
Answer: 73852 and 75338 and 78193

Question: What about the “Fluorescence competitive binding assay, fluorescence intensity” value (SfurOBP3; ligand concentration 12) of the same compound?
Answer: 65457 and 72548 and 71432

Question: What about the “Fluorescence competitive binding assay, fluorescence intensity” value (SfurOBP3; ligand concentration 14) of the same compound?
Answer: 60072 and 60001 and 71583

Question: What about the “Fluorescence competitive binding assay, fluorescence intensity” value (SfurOBP3; ligand concentration 16) of the same compound?
Answer: 61622 and 57596 and 60550

Question: And the “Fluorescence competitive binding assay, fluorescence intensity” value (SfurOBP3; ligand concentration 18)?
Answer: 75606 and 79879 and 73633

Question: And the “Fluorescence competitive binding assay, fluorescence intensity” value (SfurOBP3; ligand concentration 20)?
Answer: 63397 and 61447 and 55682

Question: What about the IC50 (SfurOBP1) of the same compound?
Answer: > 20 µM

Question: And the “Fluorescence competitive binding assay, fluorescence intensity” value (SfurOBP1; ligand concentration 2 (μM))?
Answer: 5844 and 5673 and 6371

Question: And the “Fluorescence competitive binding assay, fluorescence intensity” value (SfurOBP1; ligand concentration 4 (μM))?
Answer: 9311 and 8690 and 9932

Question: What about the “Fluorescence competitive binding assay, fluorescence intensity” value (SfurOBP1; ligand concentration 6 (μM)) of the same compound?
Answer: 6443 and 7058 and 7039

Question: And the “Fluorescence competitive binding assay, fluorescence intensity” value (SfurOBP1; ligand concentration 8 (μM))?
Answer: 6837 and 7313 and 7729

Question: What about the “Fluorescence competitive binding assay, fluorescence intensity” value (SfurOBP1; ligand concentration 10 (μM)) of the same compound?
Answer: 8238 and 7697 and 7236

Question: And the “Fluorescence competitive binding assay, fluorescence intensity” value (SfurOBP1; ligand concentration 12 (μM))?
Answer: 6489 and 6472 and 7355

Question: And the “Fluorescence competitive binding assay, fluorescence intensity” value (SfurOBP1; ligand concentration 14 (μM))?
Answer: 7069 and 6354 and 7092

Question: What about the “Fluorescence competitive binding assay, fluorescence intensity” value (SfurOBP1; ligand concentration 16 (μM)) of the same compound?
Answer: 6030 and 6324 and 7260

Question: What about the “Fluorescence competitive binding assay, fluorescence intensity” value (SfurOBP1; ligand concentration 18 (μM)) of the same compound?
Answer: 9356 and 7906 and 7474

Question: And the “Fluorescence competitive binding assay, fluorescence intensity” value (SfurOBP1; ligand concentration 20 (μM))?
Answer: 8046 and 8689 and 8368

Question: And the IC50 (SfurOBP2)?
Answer: > 20 µM

Question: And the “Fluorescence competitive binding assay, OBP2 (raw fluorescence reading)” value (SfurOBP2; ligand concentration 2 (unit not given), replicate column 1 of 3)?
Answer: 20258

Question: What about the “Fluorescence competitive binding assay, OBP2 (raw fluorescence reading)” value (SfurOBP2; ligand concentration 2 (unit not given), replicate column 2 of 3) of the same compound?
Answer: 18511

Question: What about the “Fluorescence competitive binding assay, OBP2 (raw fluorescence reading)” value (SfurOBP2; ligand concentration 2 (unit not given), replicate column 3 of 3) of the same compound?
Answer: 18768

Question: And the “Fluorescence competitive binding assay, OBP2 (raw fluorescence reading)” value (SfurOBP2; ligand concentration 4 (unit not given), replicate column 1 of 3)?
Answer: 17006

Question: What about the “Fluorescence competitive binding assay, OBP2 (raw fluorescence reading)” value (SfurOBP2; ligand concentration 4 (unit not given), replicate column 2 of 3) of the same compound?
Answer: 17312

Question: And the “Fluorescence competitive binding assay, OBP2 (raw fluorescence reading)” value (SfurOBP2; ligand concentration 4 (unit not given), replicate column 3 of 3)?
Answer: 19296

Question: And the “Fluorescence competitive binding assay, OBP2 (raw fluorescence reading)” value (SfurOBP2; ligand concentration 6 (unit not given), replicate column 1 of 3)?
Answer: 17760

Question: What about the “Fluorescence competitive binding assay, OBP2 (raw fluorescence reading)” value (SfurOBP2; ligand concentration 6 (unit not given), replicate column 2 of 3) of the same compound?
Answer: 19185

Question: What about the “Fluorescence competitive binding assay, OBP2 (raw fluorescence reading)” value (SfurOBP2; ligand concentration 6 (unit not given), replicate column 3 of 3) of the same compound?
Answer: 18943

Question: And the “Fluorescence competitive binding assay, OBP2 (raw fluorescence reading)” value (SfurOBP2; ligand concentration 8 (unit not given), replicate column 1 of 3)?
Answer: 16983

Question: And the “Fluorescence competitive binding assay, OBP2 (raw fluorescence reading)” value (SfurOBP2; ligand concentration 8 (unit not given), replicate column 2 of 3)?
Answer: 16921

Question: And the “Fluorescence competitive binding assay, OBP2 (raw fluorescence reading)” value (SfurOBP2; ligand concentration 8 (unit not given), replicate column 3 of 3)?
Answer: 18381

Question: And the “Fluorescence competitive binding assay, OBP2 (raw fluorescence reading)” value (SfurOBP2; ligand concentration 10 (unit not given), replicate column 1 of 3)?
Answer: 16551

Question: And the “Fluorescence competitive binding assay, OBP2 (raw fluorescence reading)” value (SfurOBP2; ligand concentration 10 (unit not given), replicate column 2 of 3)?
Answer: 16106

Question: And the “Fluorescence competitive binding assay, OBP2 (raw fluorescence reading)” value (SfurOBP2; ligand concentration 10 (unit not given), replicate column 3 of 3)?
Answer: 17116

Question: And the “Fluorescence competitive binding assay, OBP2 (raw fluorescence reading)” value (SfurOBP2; ligand concentration 12 (unit not given), replicate column 1 of 3)?
Answer: 12653

Question: What about the “Fluorescence competitive binding assay, OBP2 (raw fluorescence reading)” value (SfurOBP2; ligand concentration 12 (unit not given), replicate column 2 of 3) of the same compound?
Answer: 16542

Question: And the “Fluorescence competitive binding assay, OBP2 (raw fluorescence reading)” value (SfurOBP2; ligand concentration 12 (unit not given), replicate column 3 of 3)?
Answer: 15003

Question: What about the “Fluorescence competitive binding assay, OBP2 (raw fluorescence reading)” value (SfurOBP2; ligand concentration 14 (unit not given), replicate column 1 of 3) of the same compound?
Answer: 14815

Question: And the “Fluorescence competitive binding assay, OBP2 (raw fluorescence reading)” value (SfurOBP2; ligand concentration 14 (unit not given), replicate column 2 of 3)?
Answer: 15068

Question: What about the “Fluorescence competitive binding assay, OBP2 (raw fluorescence reading)” value (SfurOBP2; ligand concentration 14 (unit not given), replicate column 3 of 3) of the same compound?
Answer: 14859

Question: What about the “Fluorescence competitive binding assay, OBP2 (raw fluorescence reading)” value (SfurOBP2; ligand concentration 16 (unit not given), replicate column 1 of 3) of the same compound?
Answer: 15306

Question: What about the “Fluorescence competitive binding assay, OBP2 (raw fluorescence reading)” value (SfurOBP2; ligand concentration 16 (unit not given), replicate column 2 of 3) of the same compound?
Answer: 13071

Question: What about the “Fluorescence competitive binding assay, OBP2 (raw fluorescence reading)” value (SfurOBP2; ligand concentration 16 (unit not given), replicate column 3 of 3) of the same compound?
Answer: 13046

Question: And the “Fluorescence competitive binding assay, OBP2 (raw fluorescence reading)” value (SfurOBP2; ligand concentration 18 (unit not given), replicate column 1 of 3)?
Answer: 15697

Question: And the “Fluorescence competitive binding assay, OBP2 (raw fluorescence reading)” value (SfurOBP2; ligand concentration 18 (unit not given), replicate column 2 of 3)?
Answer: 16234

Question: What about the “Fluorescence competitive binding assay, OBP2 (raw fluorescence reading)” value (SfurOBP2; ligand concentration 18 (unit not given), replicate column 3 of 3) of the same compound?
Answer: 16085

Question: What about the “Fluorescence competitive binding assay, OBP2 (raw fluorescence reading)” value (SfurOBP2; ligand concentration 20 (unit not given), replicate column 1 of 3) of the same compound?
Answer: 15959

Question: And the “Fluorescence competitive binding assay, OBP2 (raw fluorescence reading)” value (SfurOBP2; ligand concentration 20 (unit not given), replicate column 2 of 3)?
Answer: 14904

Question: What about the “Fluorescence competitive binding assay, OBP2 (raw fluorescence reading)” value (SfurOBP2; ligand concentration 20 (unit not given), replicate column 3 of 3) of the same compound?
Answer: 13122

Question: And the “number of insects choosing hexane arm” value (S. furcifera adults)?
Answer: 12

Question: What about the “number of insects choosing volatilies arm” value (S. furcifera adults) of the same compound?
Answer: 7

Question: What about the “number of insects failed (no choice)” value (S. furcifera adults) of the same compound?
Answer: 21
